Test results taken from PubChem BioAssay AID1963980 (Molecular Pharmacology Branch, DTP, NCI, 2024).
pIC50: −log10 of the molar value.

System: 475296-252-R-J1-PDC spheroid viability
Test: Anticancer human tumor 475296-252-R-J1-PDC patient-derived rectal carcinoma cell line growth inhibition [PI3K]
Details: spheroids with HUVEC and MSC; for pIC50: curve of first compound; for viability, T/C: stronger effect = lower value
Source text: Combinatorial screen of targeted agents with the PI3K inhibitors inavolisib, alpelisib, duvelisib, and copanlisib in multi-cell type tumor spheroids
A high-throughput screen of multi-cell type tumor spheroids was designed to identify active combinations of targeted small molecules and PI3K pathway inhibitors. Complex spheroids include a stromal component modeled by human endothelial cells (HUVEC) and fibroblasts modeled by human mesenchymal stem cells (MSCs). The concentration ranges selected for each drug and investigational agent were based upon clinically achievable concentrations if the clinical Cmax of the agent was known.
Compounds. The drugs and investigational agents: inavolisib (NSC800729), alpelisib (NSC765974), duvelisib (NSC772469), copanlisib (NSC816437), ipatasertib (NSC767898), afuresertib (NSC778305), talazoparib (NSC767125), sapanisertib (NSC764658), selumetinib (NSC741078), tovorafenib (DAY101, NSC766906), vemurafenib (NSC761431), ravoxertinib (NSC781343), sotorasib (NSC818433), MRTX1133 (NSC 836407), abemaciclib (NSC 768073), palbociclib (NSC758247), venetoclax (NSC 766270), SY5609 (NSC837396), enzalutamide (NSC755605), and darolutamide (NSC825331), were obtained from the National Cancer Institute (NCI) Developmental Therapeutics Program Chemical Repository. The FDA-approved anticancer drug set is available from the NCI Developmental Therapeutics Program. […] The stock solutions were prepared in dimethyl sulfoxide (DMSO, Sigma-Aldrich, St. Louis, MO, cat. D2650) at 800-fold the tested concentration and stored at -70 degrees C prior to their use. All drugs and investigational agents were tested over a range starting from a high concentration at or near the clinical Cmax and decreasing in half-log increments. If the clinical Cmax for an agent had not been determined, the highest concentration tested was 10 microM.
Cell Culture. All cells were maintained in an incubator at 37 degrees C and 5% CO2 with 95% humidity. The PDC lines were cultured according to standard operating procedures established by the NCI PDMR (https://pdmr.cancer.gov/sops/default.htm). All PDCs were thawed and cultured in Matrigel-coated flasks prepared with a working solution of 1X Ham's F-12 nutrient mix, without supplementation (Invitrogen, Waltham, MA, cat. 11765054), 100 U/mL penicillin-streptomycin (Invitrogen, cat. 15140122), and 2.5% Matrigel (Corning Inc., Corning, NY, cat. 354248) for the first three passages. The 354836-022-R-J1-PDC, 475296-252-R-J1-PDC, and 997726-040-R-J2-PDC lines were cultured in 6A media, which includes advanced DMEM/F-12 (Thermo Fisher Scientific, cat. 12634028), 10 mM HEPES (Thermo Fisher Scientific, cat. 15630080), 1X GlutaMAX supplement (Thermo Fisher Scientific, cat. 35050061), 0.1 mg/mL primocin (InvivoGen, San Diego, CA, cat. ant-pm-2), 10% defined fetal bovine serum, heat inactivated (HyClone Laboratories Inc., Logan, UT, cat. SH30070.03HI), 50% L-WRN conditioned media (ATCC, cat. CRL-3276), 1.25 mM N-Acetyl-L-cysteine (Sigma-Aldrich, cat. A9165), 10 mM nicotinamide (Sigma-Aldrich, cat. N0636), 1X B-27 supplement (Thermo Fisher Scientific, cat. 17504044), 1X N-2 supplement (Thermo Fisher Scientific, cat. 17502048), and 10 microM Y-27632 dihydrochloride (Tocris Bioscience, Bristol, United Kingdom, cat. 1254). The 624824-186-R-J2-PDC line was cultured in 6C/Colon 1B media, which includes all 6A media components plus 50 ng/mL human EGF recombinant protein (Thermo Fisher Scientific, cat. PHG0311). […]

[1] = second compound 0.00316 µM, first compound 0.0316 µM
[2] = second compound 0.00316 µM, first compound 0.1 µM
[3] = second compound 0.01 µM, first compound 0.0316 µM
[4] = second compound 0.01 µM, first compound 0.1 µM
[5] = second compound 0.0316 µM, first compound 0.0316 µM
[6] = second compound 0.0316 µM, first compound 0.1 µM
[7] = second compound 0.1 µM, first compound 0.0316 µM
[8] = second compound 0.1 µM, first compound 0.1 µM
[9] = second compound 0.316 µM, first compound 0.0316 µM
[10] = second compound 0.316 µM, first compound 0.1 µM
[11] = second compound 1 µM, first compound 0.0316 µM
[12] = second compound 1 µM, first compound 0.1 µM
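Note: spheroids exposed to agents for seven days before readout.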

CC(C)NCC(C(=O)N1CCN(c2ncnc3c2C(C)CC3O)CC1)c1ccc(Cl)cc1 (centres undefined) + CC(Nc1ccc2c(c1)OCCn1cc(N3C(=O)OCC3C(F)F)nc1-2)C(N)=O
pIC50 (second compound 0.00316 µM): < 5.00
pIC50 (second compound 0.01 µM): < 5.00
pIC50 (second compound 0.0316 µM): < 5.00
pIC50 (second compound 0.1 µM): < 5.00
pIC50 (second compound 0.316 µM): < 5.00
pIC50 (second compound 1 µM): < 5.00
viability, T/C [1]: 85.7%
viability, T/C [2]: 86.5%
viability, T/C (second compound 0.00316 µM, first compound 0.316 µM): 95.3%
viability, T/C (second compound 0.00316 µM, first compound 1 µM): 75.7%
viability, T/C (second compound 0.00316 µM, first compound 3.16 µM): 67.6%
viability, T/C (second compound 0.00316 µM, first compound 10 µM): 59.3%
viability, T/C [3]: 82.7%
viability, T/C [4]: 78.5%
viability, T/C (second compound 0.01 µM, first compound 0.316 µM): 88.3%
viability, T/C (second compound 0.01 µM, first compound 1 µM): 67.6%
viability, T/C (second compound 0.01 µM, first compound 3.16 µM): 65.3%
viability, T/C (second compound 0.01 µM, first compound 10 µM): 67.5%
viability, T/C [5]: 92.7%
viability, T/C [6]: 94.3%
viability, T/C (second compound 0.0316 µM, first compound 0.316 µM): 91.4%
viability, T/C (second compound 0.0316 µM, first compound 1 µM): 95.4%
viability, T/C (second compound 0.0316 µM, first compound 3.16 µM): 63.5%
viability, T/C (second compound 0.0316 µM, first compound 10 µM): 62.4%
viability, T/C [7]: 84.2%
viability, T/C [8]: 86.4%
viability, T/C (second compound 0.1 µM, first compound 0.316 µM): 90.5%
viability, T/C (second compound 0.1 µM, first compound 1 µM): 92.5%
viability, T/C (second compound 0.1 µM, first compound 3.16 µM): 78.4%
viability, T/C (second compound 0.1 µM, first compound 10 µM): 57.8%
viability, T/C [9]: 84.9%
viability, T/C [10]: 80%
viability, T/C (second compound 0.316 µM, first compound 0.316 µM): 84.9%
viability, T/C (second compound 0.316 µM, first compound 1 µM): 82.6%
viability, T/C (second compound 0.316 µM, first compound 3.16 µM): 87.4%
viability, T/C (second compound 0.316 µM, first compound 10 µM): 66.2%
viability, T/C [11]: 93.5%
viability, T/C [12]: 86.2%
viability, T/C (second compound 1 µM, first compound 0.316 µM): 83.4%
viability, T/C (second compound 1 µM, first compound 1 µM): 77.8%
viability, T/C (second compound 1 µM, first compound 3.16 µM): 77%
viability, T/C (second compound 1 µM, first compound 10 µM): 67.8%

Cn1ncnc1[C@H]1c2n[nH]c(=O)c3cc(F)cc(c23)N[C@@H]1c1ccc(F)cc1 + CC(Nc1ccc2c(c1)OCCn1cc(N3C(=O)OCC3C(F)F)nc1-2)C(N)=O
pIC50 (second compound 0.00316 µM): < 7.00
pIC50 (second compound 0.01 µM): < 7.00
pIC50 (second compound 0.0316 µM): < 7.00
pIC50 (second compound 0.1 µM): < 7.00
pIC50 (second compound 0.316 µM): < 7.00
pIC50 (second compound 1 µM): < 7.00
viability, T/C (second compound 0.00316 µM, first compound 0.000316 µM): 88.1%
viability, T/C (second compound 0.00316 µM, first compound 0.001 µM): 84.3%
viability, T/C (second compound 0.00316 µM, first compound 0.00316 µM): 94.8%
viability, T/C (second compound 0.00316 µM, first compound 0.01 µM): 93.2%
viability, T/C [1]: 97.2%
viability, T/C [2]: 90.1%
viability, T/C (second compound 0.01 µM, first compound 0.000316 µM): 98.4%
viability, T/C (second compound 0.01 µM, first compound 0.001 µM): 82.9%
viability, T/C (second compound 0.01 µM, first compound 0.00316 µM): 89.2%
viability, T/C (second compound 0.01 µM, first compound 0.01 µM): 95.1%
viability, T/C [3]: 92.8%
viability, T/C [4]: 92%
viability, T/C (second compound 0.0316 µM, first compound 0.000316 µM): 86.1%
viability, T/C (second compound 0.0316 µM, first compound 0.001 µM): 104%
viability, T/C (second compound 0.0316 µM, first compound 0.00316 µM): 88.8%
viability, T/C (second compound 0.0316 µM, first compound 0.01 µM): 87.4%
viability, T/C [5]: 88%
viability, T/C [6]: 96.6%
viability, T/C (second compound 0.1 µM, first compound 0.000316 µM): 92.4%
viability, T/C (second compound 0.1 µM, first compound 0.001 µM): 101%
viability, T/C (second compound 0.1 µM, first compound 0.00316 µM): 93.6%
viability, T/C (second compound 0.1 µM, first compound 0.01 µM): 92.6%
viability, T/C [7]: 89.7%
viability, T/C [8]: 97.9%
viability, T/C (second compound 0.316 µM, first compound 0.000316 µM): 81.8%
viability, T/C (second compound 0.316 µM, first compound 0.001 µM): 83.4%
viability, T/C (second compound 0.316 µM, first compound 0.00316 µM): 86.1%
viability, T/C (second compound 0.316 µM, first compound 0.01 µM): 84.6%
viability, T/C [9]: 89.8%
viability, T/C [10]: 81.6%
viability, T/C (second compound 1 µM, first compound 0.000316 µM): 84.5%
viability, T/C (second compound 1 µM, first compound 0.001 µM): 71.6%
viability, T/C (second compound 1 µM, first compound 0.00316 µM): 87%
viability, T/C (second compound 1 µM, first compound 0.01 µM): 89.1%
viability, T/C [11]: 85%
viability, T/C [12]: 79.6%
